Measured values published in paper PMC3878827, “Synthesis and biological characterisation of ^18F-SIG343 and ^18F-SIG353, novel and high selectivity σ2 radiotracers, for tumour imaging properties” (EJNMMI Research, 2013).
Each block holds one compound with its values, some of them ahead of it.

Experiments:
[1] = Biodistribution studies in A375 tumour-bearing mice; assay type: in vivo, Balb/C nude mice; details: for Biodistribution, Blood / Biodistribution, Brain / Biodistribution, Femur / Biodistribution, Heart / Biodistribution, Kidneys / Biodistribution, Liver / Biodistribution, Lungs / Biodistribution, Ovaries / Biodistribution, Pancreas / Biodistribution, Spleen / Biodistribution, Tumour: i.v., ± SEM, n = 5
Protocol: Female Balb/C nude mice aged 5 to 6 weeks old were obtained from the Animal Resource Centre (Perth, Australia). The animals were kept at a constant temperature of 22°C ± 2°C on a 12/12 h light/dark cycle with lights on at 09:00 am. Food and water were freely available. After a week of acclimatisation, mice were injected subcutaneously in the left flank with 1 × 10^6 A375 human amelanotic melanoma cells, in 100 μL of Ca^2+/Mg^2+-free phosphate buffered saline. The procedure was performed without anaesthetic. For in vivo studies, A375 tumour-bearing mice were used 26 days after tumour inoculation.
Tumour-bearing mice were used to examine the tissue distribution of radioactivity after intravenous injection into the tail vein of 1 MBq of ^18F-SIG343 or ^18F-SIG353 in 100 μL of saline. At 15, 30, 60, and 120 min post injection of the radiotracer, groups of mice (n = 5) were sacrificed by CO2 administration followed by cervical […] and dissection. Selected organs were weighed, and the radioactivity was measured using a γ-counter. The percentage of injected dose (%ID) was calculated by comparison with suitable dilutions of the injected dose. Radioactivity concentrations were expressed as percentage of injected dose per gram of wet tissue (%ID/g), assuming a uniform density of 1 g/cm^3. Data were corrected for the radioactivity decay and tail injected dose and normalised for the standard mouse body weight (20 g). The remaining activity in the carcass was also determined in order to obtain the total activity in the mouse (background activity) at each time point.
Selected tumour-to-organ (tumour-to-blood and tumour-to-muscle) uptake ratios (TORs), were calculated by dividing the tumour radioactivity concentration (%ID/g) by the radioactivity concentration in the respective organ at time t. Comparisons of organ radioactivity concentrations (%ID/g) and TORs in the biodistribution studies or %ID/cc in PET imaging studies between the two radiotracers were performed using separate unpaired, two-tailed Student's t tests, matched organs and time points.

[2] = test system: A375 (human amelanotic melanoma) cells; test: Cell uptake studies in A375 cells; assay type: cell-based
Protocol: A375 (human amelanotic melanoma) cells were purchased from American Type Culture Collection (Manassas, VA, USA) and cultured in RPMI-1640 medium (Sigma-Aldrich, St. Louis, MO, USA) supplemented with 10% foetal calf serum (Invitrogen, CA, USA) and 2 mM L-glutamine (Sigma). Cells were maintained in 175 cm^2 flasks in at 37°C in 5% CO2:95% atmosphere humidified incubator and grown to sub-confluent monolayers before being detached using trypsin for use in animal models.
In 24-well culture plates, 2.5 × 10^5 cells were seeded in complete medium and left to attach overnight. The following day, the number of cells per well was counted in triplicate. Before incubation with the radiotracer, the growth media was removed and the cells were washed once with warm PBS to remove all traces of growth media. ^18F-SIG343 or ^18F-SIG353 was formulated in warm PBS containing 0.1% Tween-80. Freshly prepared radiotracer (0.37 MBq in 500 μL) was added and the cells were incubated at 37°C for 2, 15, 30, 60 and 120 min. Uptake was terminated by removing the tracer solution and washing cells with ice-cold PBS. Subsequently, the cells were lysed with 500 μL of 0.2 N NaOH. The radioactivity in the cell lysate was measured with a Wallac 1480 γ-counter (PerkinElmer, MA, USA). The results were expressed as percentage of applied dose per 1 × 10^5 cells. All activities were corrected for decay. Optimal uptake time will be selected for inhibition cell uptake studies.

[3] = PET/CT imaging studies in A375 tumour-bearing mice; assay type: in vivo; details: 120-min PET scan
Protocol: The mouse was anaesthetised via inhalant isoflurane (Forthane, Abbott Laboratories, IL, USA) (5% induction, 1% to 3% maintenance in 200 mL/min oxygen). Respiration and heart rates of the animal were monitored (BioVet; m2m Imaging Corp, Cleveland, OH, USA) during the entire scanning period. The core body temperature of the animals was maintained via a temperature-controlled heating pad. The mouse was injected intravenously with 4.6 to 16.7 MBq of ^18F-SIG343 or ^18F-SIG353, with a constant mass of the unlabelled compounds of 0.06 nmol in 100 μL of saline (n = 3). A 120-min PET scan was performed on an Inveon multimodality positron emission tomography-computed tomography (PET/CT) system (Siemens Medical Solutions, Knoxville, TN, USA) followed by a 10-min CT scan on each subject for anatomical information. Image acquisition commenced simultaneously with radiotracer injection. The data was histogrammed into 25 consecutive frames, and activity volumes were reconstructed with an iterative reconstruction (OSEM/MAP) including attenuation and scatter correction, achieving a reconstructed spatial resolution of 1.5 mm. […] Regional activity data (Bq/cc) were extracted from nine selected volumes/regions of interest (VOIs/ROIs) where σ receptor distribution was reported and the tail and expressed as percentage of injected dose per cubic centimetres (%ID/cc).

[4] = declined after 60 min (up to 120 min)

Biodistribution, Blood ([1]; 15 min post injection): 0.9 ± 0.1 %ID/g | Biodistribution, Brain ([1]; 15 min post injection): 9.6 ± 0.2^ *** %ID/g | Biodistribution, Femur ([1]; 15 min post injection): 4.5 ± 0.4 %ID/g | Biodistribution, Heart ([1]; 15 min post injection): 5.5 ± 0.4 %ID/g | Biodistribution, Kidneys ([1]; 15 min post injection): 26.1 ± 0.6 %ID/g | Biodistribution, Liver ([1]; 15 min post injection): 16.0 ± 0.9^ ** %ID/g | Biodistribution, Lungs ([1]; 15 min post injection): 30.3 ± 1.2^ *** %ID/g | Biodistribution, Ovaries ([1]; 15 min post injection): 10.8 ± 1.8 %ID/g | Biodistribution, Pancreas ([1]; 15 min post injection): 42.9 ± 2.8^ * %ID/g | Biodistribution, Spleen ([1]; 15 min post injection): 14.6 ± 1.2 %ID/g | Biodistribution, Tumour ([1]; 15 min post injection): 3.1 ± 0.5 %ID/g | Biodistribution, Blood ([1]; 30 min post injection): 0.7 ± 0.04 %ID/g | Biodistribution, Brain ([1]; 30 min post injection): 8.8 ± 0.6^ *** %ID/g | Biodistribution, Femur ([1]; 30 min post injection): 4.3 ± 0.2 %ID/g | Biodistribution, Heart ([1]; 30 min post injection): 3.5 ± 0.2^ ** %ID/g | Biodistribution, Kidneys ([1]; 30 min post injection): 19.8 ± 0.9^ *** %ID/g | Biodistribution, Liver ([1]; 30 min post injection): 21.9 ± 0.8^ *** %ID/g | Biodistribution, Lungs ([1]; 30 min post injection): 17.4 ± 0.7^ *** %ID/g | Biodistribution, Ovaries ([1]; 30 min post injection): 14.0 ± 2.2 %ID/g | Biodistribution, Pancreas ([1]; 30 min post injection): 50.2 ± 2.0^ *** %ID/g | Biodistribution, Spleen ([1]; 30 min post injection): 15.2 ± 1.1^ * %ID/g | Biodistribution, Tumour ([1]; 30 min post injection): 3.0 ± 0.1^ * %ID/g | Biodistribution, Blood ([1]; 60 min post injection): 0.6 ± 0.1 %ID/g | Biodistribution, Brain ([1]; 60 min post injection): 7.1 ± 0.4^ *** %ID/g | Biodistribution, Femur ([1]; 60 min post injection): 3.8 ± 0.1 %ID/g | Biodistribution, Heart ([1]; 60 min post injection): 1.9 ± 0.04^ ** %ID/g | Biodistribution, Kidneys ([1]; 60 min post injection): 12.0 ± 0.6^ ** %ID/g | Biodistribution, Liver ([1]; 60 min post injection): 15.2 ± 1.1^ *** %ID/g | Biodistribution, Lungs ([1]; 60 min post injection): 9.9 ± 0.3^ *** %ID/g | Biodistribution, Ovaries ([1]; 60 min post injection): 13.5 ± 2.2 %ID/g | Biodistribution, Pancreas ([1]; 60 min post injection): 64.4 ± 3.5^ *** %ID/g | Biodistribution, Spleen ([1]; 60 min post injection): 12.8 ± 0.9^ *** %ID/g | Biodistribution, Tumour ([1]; 60 min post injection): 3.5 ± 0.3^ * %ID/g | Biodistribution, Blood ([1]; 120 min post injection): 0.4 ± 0.01 %ID/g | Biodistribution, Brain ([1]; 120 min post injection): 5.2 ± 0.7^ *** %ID/g | Biodistribution, Femur ([1]; 120 min post injection): 3.2 ± 0.1 %ID/g | Biodistribution, Heart ([1]; 120 min post injection): 1.1 ± 0.1 %ID/g | Biodistribution, Kidneys ([1]; 120 min post injection): 7.5 ± 0.4 %ID/g | Biodistribution, Liver ([1]; 120 min post injection): 19.8 ± 0.9^ * %ID/g | Biodistribution, Lungs ([1]; 120 min post injection): 5.0 ± 0.3 %ID/g | Biodistribution, Ovaries ([1]; 120 min post injection): 11.5 ± 1.4 %ID/g | Biodistribution, Pancreas ([1]; 120 min post injection): 61.7 ± 3.4^ *** %ID/g | Biodistribution, Spleen ([1]; 120 min post injection): 8.5 ± 0.2^ *** %ID/g | Biodistribution, Tumour ([1]; 120 min post injection): 3.9 ± 0.2 %ID/g | Tumour-to-blood uptake ratio ([1]; at 120 min): eight- to ninefold | Tumour-to-muscle uptake ratio ([1]; at 120 min): 4 | Tumour uptake by PET imaging [3]: 0.9 %ID/cc
Structure (SMILES): COc1cc2c(cc1OC)CN(CCCCN1C(=O)c3ccc([18F])cc3C1=O)CC2 [^18F-SIG343]
Cell uptake, percentage of applied dose per 1 × 10^5 cells ([2]; after 2 min, 37°C): approximately 2% | Cell uptake, percentage of applied dose per 1 × 10^5 cells ([2]; between 15 and 60 min (peak/plateau)): 2% | Cell uptake, percentage of applied dose per 1 × 10^5 cells [2, 4]: 1.6%

Biodistribution, Blood ([1]; 15 min post injection): 1.2 ± 0.03 %ID/g | Biodistribution, Brain ([1]; 15 min post injection): 4.4 ± 0.2 %ID/g | Biodistribution, Femur ([1]; 15 min post injection): 5.3 ± 0.3 %ID/g | Biodistribution, Heart ([1]; 15 min post injection): 4.5 ± 0.2 %ID/g | Biodistribution, Kidneys ([1]; 15 min post injection): 23.4 ± 2.0 %ID/g | Biodistribution, Liver ([1]; 15 min post injection): 23.5 ± 2.0 %ID/g | Biodistribution, Lungs ([1]; 15 min post injection): 17.4 ± 0.5 %ID/g | Biodistribution, Ovaries ([1]; 15 min post injection): 10.0 ± 0.9 %ID/g | Biodistribution, Pancreas ([1]; 15 min post injection): 56.4 ± 4.7 %ID/g | Biodistribution, Spleen ([1]; 15 min post injection): 15.7 ± 1.1 %ID/g | Biodistribution, Tumour ([1]; 15 min post injection): 3.8 ± 0.3 %ID/g | Biodistribution, Blood ([1]; 30 min post injection): 1.0 ± 0.1 %ID/g | Biodistribution, Brain ([1]; 30 min post injection): 2.3 ± 0.1 %ID/g | Biodistribution, Femur ([1]; 30 min post injection): 4.7 ± 0.2 %ID/g | Biodistribution, Heart ([1]; 30 min post injection): 2.5 ± 0.1 %ID/g | Biodistribution, Kidneys ([1]; 30 min post injection): 13.3 ± 0.8 %ID/g | Biodistribution, Liver ([1]; 30 min post injection): 33.0 ± 1.8 %ID/g | Biodistribution, Lungs ([1]; 30 min post injection): 8.6 ± 0.4 %ID/g | Biodistribution, Ovaries ([1]; 30 min post injection): 11.8 ± 1.5 %ID/g | Biodistribution, Pancreas ([1]; 30 min post injection): 72.8 ± 2.4 %ID/g | Biodistribution, Spleen ([1]; 30 min post injection): 12.0 ± 0.6 %ID/g | Biodistribution, Tumour ([1]; 30 min post injection): 3.8 ± 0.3 %ID/g | Biodistribution, Blood ([1]; 60 min post injection): 0.7 ± 0.02 %ID/g | Biodistribution, Brain ([1]; 60 min post injection): 1.3 ± 0.01 %ID/g | Biodistribution, Femur ([1]; 60 min post injection): 3.8 ± 0.2 %ID/g | Biodistribution, Heart ([1]; 60 min post injection): 1.7 ± 0.02 %ID/g | Biodistribution, Kidneys ([1]; 60 min post injection): 8.7 ± 0.3 %ID/g | Biodistribution, Liver ([1]; 60 min post injection): 32.6 ± 1.0 %ID/g | Biodistribution, Lungs ([1]; 60 min post injection): 6.1 ± 0.1 %ID/g | Biodistribution, Ovaries ([1]; 60 min post injection): 9.6 ± 1.5 %ID/g | Biodistribution, Pancreas ([1]; 60 min post injection): 94.3 ± 4.2 %ID/g | Biodistribution, Spleen ([1]; 60 min post injection): 7.7 ± 0.4 %ID/g | Biodistribution, Tumour ([1]; 60 min post injection): 4.6 ± 0.2 %ID/g | Biodistribution, Blood ([1]; 120 min post injection): 0.7 ± 0.03 %ID/g | Biodistribution, Brain ([1]; 120 min post injection): 0.8 ± 0.02 %ID/g | Biodistribution, Femur ([1]; 120 min post injection): 3.9 ± 0.1 %ID/g | Biodistribution, Heart ([1]; 120 min post injection): 1.3 ± 0.1 %ID/g | Biodistribution, Kidneys ([1]; 120 min post injection): 7.1 ± 0.2 %ID/g | Biodistribution, Liver ([1]; 120 min post injection): 24.1 ± 1.4 %ID/g | Biodistribution, Lungs ([1]; 120 min post injection): 4.7 ± 0.2 %ID/g | Biodistribution, Ovaries ([1]; 120 min post injection): 12.2 ± 3.1 %ID/g | Biodistribution, Pancreas ([1]; 120 min post injection): 119.2 ± 1.6 %ID/g | Biodistribution, Spleen ([1]; 120 min post injection): 5.5 ± 0.2 %ID/g | Biodistribution, Tumour ([1]; 120 min post injection): 4.8 ± 0.4 %ID/g | Tumour-to-blood uptake ratio ([1]; at 120 min): eight- to ninefold | Tumour uptake by PET imaging [3]: 1.3 %ID/cc
Structure (SMILES): COc1cc2c(cc1OC)CN(CCCCCN1C(=O)c3ccc([18F])cc3C1=O)CC2 [^18F-SIG353]
Cell uptake, percentage of applied dose per 1 × 10^5 cells ([2]; after 2 min, 37°C): approximately 2% | Cell uptake, percentage of applied dose per 1 × 10^5 cells [2, 4]: 2.3%
